Measured values published in US5023270A, “Antidepressant method of use” (priority 1988, dated 1991).
Entries after “also recorded” stand apart in the source; their conditions may differ.

Columns and labels:
[1] = Acute oral toxicity, single administration, 14 days observation; settings: in vivo, 2% carboxymethylcellulose with 5% Tween 80
Description: Animal trials were performed with mice and male rats free from specific pathogenic organisms, subject to a preliminary water diet for 18 hours. All animals were kept under observation during 14 days after a single oral administration, in order to detect any eventuality of toxic after effects. The median lethal dose LD50 and its confidence limits were computed by the graphic method of J. T. Litchfield and F. Wilcoxon.
Oral administration was used throughout the experiments, with an aqueous solution of 2% carboxymethylcellulose treated with Tween®80 (Difco or ICI) at 5% as dispersing agent.

[2] = tested on: plasma melatonin; experiment: Plasma melatonin in psychiatric patients and control subjects after a single oral dose of 5-MOP; format: in vivo, human; settings: for Delta Melatonin: 11:00 p.m. minus 8:00 p.m. baseline, 40 mg oral; for Melatonin (11:00 p.m.): 3 h after 40 mg oral 5-MOP, mean ± SEM
Description: FIG. 1 is a bar histogram which depicts the plasma melatonin levels in six diverse groups of human subjects before and after treatment with a single dose of 40 mg 5-methoxypsoralen (5-MOP) administered orally to each subject at 8:00 p.m. The subjects were maintained in total darkness or under weak illumination (without UV) for at least 9 hours after 5-MOP intake (corresponding to the sleep period). Blood samples were taken at 8:00 p.m. prior to 5-MOP administration and at 11:00 p.m. (see text for full description of experimental details). Plasma melatonin levels were evaluated by radioimmunology after extraction in diethylether using the method of Treifenaueret, Andres. Melatonin levels were established and compared with each group of subjects with similar age means using paired t-tests and between groups using unpaired t-tests. " -melatonin is defined as the difference between plasma melatonin levels (nmd/1) after 5-MOP uptake (3 hours after administration and =before 5-MOP administration; =after 5-MOP uptake. (p=significance of difference between the two values. )
The experiment was performed on six groups of human subjects.
Control groups 1, 2 and 3 comprised respectively:
Group 1: 13 elderly, sane subjects (7 women, 6 men).
Group 2: 13 middle-aged, sane subjects (6 women, 7 men).
Group 3: 13 young, sane subjects (6 women, 7 men).
These subjects had been contacted for welfare or minor nervous problems, but were free from major psychiatric disorders or organic illnesses. Most aged subjects were waiting for admission to nursing homes.
These elderly patients had no major cardiac, hepatic, renal, endocrineous or osseous disorders, nor any evolutionary pathology.
Group 5 comprised 13 subjects (8 women, 5 men) in an acute depressive phase, showing all symptoms of a major depressive disorder in the sense of DSM III.
Group 6 comprised 13 schizophrenic subjects (6 women, 7 men), according to DSM III criteria.
The diagnosis was established by means of a structured examination for affective disorders, schizophrenia and dementia, performed on each patient by two different psychiatrists. Any patient with a history of serious attendant illnesses, such as high blood pressure, diabetes, or other endocrineous pathologies, with distorted clinical or biological results, were excluded from the study. The patients received no medicaments 4 days prior to the experiment, except for 5 mg nitrazepam or 0.25 mg trazolam in the evening. All subjects participated voluntarily in the experiment and 5 were advised of its purpose. A single dose of 40 mg 5-methoxypsoralen (5-MOP) was given orally to all subjects at 8:00 p.m. To avoid any photosensitivity effects due to psoralen, patients were maintained in total darkness or under weak illumination (without UV) for at least 9 hours after 5-MOP intake (corresponding to the sleep period).
Blood samples were taken at 8:00 p.m., prior to 5-MOP administration, and again at 11:00 p.m., by means of a stationary catheter attached to the forearm at least twenty minutes before extraction of the first blood sample. Samples were immediately centrifugated at 4° C. and refrigerated at -20° C. until quantitative analysis. Plasma levels were evaluated by radioimmunology after extraction in diethylether, using the #method of Treifenaueret, Andres.
Melatonin levels were established and compared within each group by means of paired t-tests, and between groups by unpaired t-tests.
Because age could influence endocrinous responses, only groups with similar age means were compared in these experiments.
" melatonin" has been defined as the difference between melatonin levels after 5-MOP intake and the corresponding baseline values. The parameter "p" measures the significance of the difference between two values.

[3] = tested on: rabbits; experiment: Long-term toxicity, ingestive intake; format: in vivo; settings: 300 mg/kg daily, 42 consecutive days
Description: The general, long-term toxicity of 5-MOP was also investigated in rabbits treated by ingestion and dermal application, with the following results: […]

[4] = tested on: major depressive disorder; experiment: Clinical study of antidepressant effect (17 HDRS items), major depressive disorder; format: in vivo, human
Description: Experimental verification of the clinical effects of 5-MOP on depressive patients was performed on 24 physically sane subjects (11 men and 13 women), suffering from a major depressive disorder.
Chosen patients afflicted with a major depressive disorder according to DSM III were given no treatment 4 days prior to the experiment, except for 5 mg nitrazepam in the evening.
The patients were divided into two groups. The first group was treated with a single daily dose of 40 mg 5-MOP during a week, administered orally at 9:00 p.m. The second group was given placebos, double blindly, under identical conditions.
To prevent any parallel effects due to the photosensitive properties of 5-MOP, patients were not exposed to ultraviolet (UV) radiation during nine hours following 5-MOP intake (corresponding to their sleep period).
After a week of treatment with 5-methoxypsoralen or placebos, clinical results were established for each patient group, and compared using the Wilcoxon test (W) within groups and the Mann-Whitney test (U) between groups.

[5] = tested on: plasma melatonin; settings: cited from earlier work

## COc1c2ccoc2cc2oc(=O)ccc12 [5-MOP, 4-methoxy-7H-furo[3,2-g][1]benzopyran-7-one]
[1]; mouse, male mice
  LD50 at 336 h: 8100 mg/kg
[1]; rat, male rats
  LD50 at 336 h: > 30000 mg/kg
[2]; Control 1 (elderly sane)
  Delta Melatonin: 0.22 ± 0.11 nmd/1
[2]; Control 1 (elderly sane, n=13), baseline 8:00 p.m. 0.19 ± 0.05
  Melatonin (11:00 p.m.): 0.42 ± 0.12 nmd/1
[2]; Control 2 (middle-aged sane)
  Delta Melatonin: 0.20 ± 0.08 nmd/1
[2]; Control 2 (middle-aged sane, n=13), baseline 8:00 p.m. 0.16 ± 0.04
  Melatonin (11:00 p.m.): 0.36 ± 0.09 nmd/1
[2]; Control 3 (young sane)
  Delta Melatonin: 0.21 ± 0.09 nmd/1
[2]; Control 3 (young sane, n=13), baseline 8:00 p.m. 0.16 ± 0.05
  Melatonin (11:00 p.m.): 0.36 ± 0.11 nmd/1
[2]; at the dosage used (40 mg)
  correlation between melatonin levels and absolute 5-MOP content: No correlation was observed
[2]; control groups, vs before intake, t=4.59, p<0.01, t=4.18, p<0.001, t<3.92, p<0.001
  melatonin levels after 5-MOP intake (in words): substantially higher
[2]; dements (n=13), baseline 8:00 p.m. 0.21 ± 0.06, t=3.34, p<0.01
  Melatonin (11:00 p.m.): 0.30 ± 0.08 nmd/1
[2]; dements vs elderly control group, r=2.4, p<0.03
  mean delta melatonin vs control group (in words): substantially lower
[2]; dements, vs Control 1 t/p 2.4/0.025
  Delta Melatonin: 0.09 ± 0.06 nmd/1
[2]; depressives (n=13), baseline 8:00 p.m. 0.22 ± 0.06, t=2.29, p<0.05
  Melatonin (11:00 p.m.): 0.39 ± 0.15 nmd/1
[2]; depressives vs control group, r=0.59, p<0.05, not significant
  mean delta melatonin vs control group (in words): slightly lower
[2]; depressives, vs Control 2 t/p 0.59/0.562
  Delta Melatonin: 0.17 ± 0.09 nmd/1
[2]; psychiatric subjects
  plasma melatonin levels after administration (in words): significant rise; also recorded: significant increase
[2]; schizophrenics (n=13), baseline 8:00 p.m. 0.21 ± 0.09, t=8.31, p<0.0001
  Melatonin (11:00 p.m.): 0.48 ± 0.09 nmd/1
[2]; schizophrenics, vs Control 3 t/p 0.58/0.567
  Delta Melatonin: 0.15 ± 0.05 nmd/1
[2]; single 40 mg oral dose, all groups
  side-effects: No patient exhibited side-effects
[3]
  tolerance in toxicological tests (general condition, hematological, anatomicopathological, skin and eye, clinical chemolysis): good tolerance
[4]; 40 mg daily oral, one week
  side effects: no patient treated with 5-MOP suffered side effects
[4]; 5-MOP composition compared with tricyclics
  treatment period to obtain the same improvement in behavior: one
[4]; 17 HDRS items, 40 mg daily oral 9:00 p.m., one week, n=12, HDRS J0 21.92 ± 8.21, W 3.5, p 0.01, placebo J7 21.16 ± 5.02
  HDRS J7: 16.67 ± 7.99
[4]; after a week of treatment, 40 mg daily oral, vs placebo
  improvement of depressive state (in words): significant improvement; also recorded: rapid improvement from depression; also recorded: significantly improves the depressive state
[4]; without irradiation of patients by UVA
  effect without UVA irradiation: full effect
[5]; humans, acute effect
  retinal sensitivity to light: increases
[5]; humans, sane subjects, earlier reports
  plasma melatonin levels / melatonin secretion (in words): increased melatonin secretion; also recorded: increases in plasma melatonin levels
[5]; perfectly sane human subjects
  effect on other endocrine hormones: no discernible effect

## COc1c2occc2cc2ccc(=O)oc12 [8-methoxypsoralen, reference compound]
[1]; mouse, male mice
  LD50 at 336 h: 875 mg/kg
[1]; rat, male rats
  LD50 at 336 h: 4400 mg/kg
